Tests used:
[1] = Racemization experiment in aqueous phosphate buffer pH 11 warmed at 37° C.; type: physicochemical; settings: aqueous phosphate buffer solution pH=11, c=10^-5 M, 26 hours at 37° C.
[2] = Stability towards racemization at different pH values (aqueous buffer solutions, refrigerator, optical purity by chiral column chromatography); type: physicochemical; settings: for racemization (stereochemical stability): after 16 days
Protocol: Stability Towards Racemization at Different pH Values
The stability of the optically pure compounds of the invention against racemization has been measured at low concentrations in a refrigerator in aqueous buffer solutions at pH 8, 9.3, 10 and 11.2. The stereochemical stability was measured by comparing the optical purity for the (−)-isomer of 5-methoxy-2-[[(4-methoxy-3,5-dimethyl-2-pyridinyl)-methyl]sulfinyl]-1H-benzimidazole in buffer solution immediately after dissolving and after several days. The measurement was performed by chromatography on an analytical chiral column.

| racemization (stereochemical stability, optical purity immediately after dissolving vs after several days) ([2]; aqueous buffer solution pH 11.2, refrigerator, low concentration, after 21 days) | chemical degradation of the compound ([2]; aqueous buffer solutions pH 8, 9.3 and 10, refrigerator (compared with pH 11.2)) | Structure (SMILES) | racemization [1] | racemization (stereochemical stability) ([2]; aqueous buffer solution pH 8, refrigerator) | racemization (stereochemical stability) ([2]; aqueous buffer solution pH 9.3, refrigerator) | racemization (stereochemical stability) ([2]; aqueous buffer solution pH 10, refrigerator) |
| --- | --- | --- | --- | --- | --- | --- |
|  |  | COc1ccc2[nH]c([S+]([O-])Cc3ncc(C)c(OC)c3C)nc2c1.[Na+] (single isomer, unassigned; (+)) [(+)-5-methoxy-2-[[(4-methoxy-3,5-dimethyl-2-pyridinyl)methyl]sulfinyl]-1H-benzimidazole sodium salt] | without any racemization at all being observed |  |  |  |
| no racemization | more apparent | COc1ccc2[nH]c([S+]([O-])Cc3ncc(C)c(OC)c3C)nc2c1 (single isomer, unassigned; (-)) [(−)-5-methoxy-2-[[(4-methoxy-3,5-dimethyl-2-pyridinyl)methyl]-sulfinyl]-1H-benzimidazole] |  | at none of these pH values a detectable racemization was obtained | at none of these pH values a detectable racemization was obtained | at none of these pH values a detectable racemization was obtained |

— patent publication US6875872B1, “Compounds” (AstraZeneca, priority 1993, dated 2005)
